Laboratory results: patent publication US10428080B2, “TBK/IKK inhibitor compounds and uses thereof” (Merck Patent GmbH, priority 2015, dated 2019)

Tests used:
TBK1 = molecular target: T1, TBK1 (Homo sapiens, UniProt Q9UHD2); assay: TBK Biochemical Assay; conditions: read-out: TBK1 IC50
T1 sequence (Q9UHD2 1-729): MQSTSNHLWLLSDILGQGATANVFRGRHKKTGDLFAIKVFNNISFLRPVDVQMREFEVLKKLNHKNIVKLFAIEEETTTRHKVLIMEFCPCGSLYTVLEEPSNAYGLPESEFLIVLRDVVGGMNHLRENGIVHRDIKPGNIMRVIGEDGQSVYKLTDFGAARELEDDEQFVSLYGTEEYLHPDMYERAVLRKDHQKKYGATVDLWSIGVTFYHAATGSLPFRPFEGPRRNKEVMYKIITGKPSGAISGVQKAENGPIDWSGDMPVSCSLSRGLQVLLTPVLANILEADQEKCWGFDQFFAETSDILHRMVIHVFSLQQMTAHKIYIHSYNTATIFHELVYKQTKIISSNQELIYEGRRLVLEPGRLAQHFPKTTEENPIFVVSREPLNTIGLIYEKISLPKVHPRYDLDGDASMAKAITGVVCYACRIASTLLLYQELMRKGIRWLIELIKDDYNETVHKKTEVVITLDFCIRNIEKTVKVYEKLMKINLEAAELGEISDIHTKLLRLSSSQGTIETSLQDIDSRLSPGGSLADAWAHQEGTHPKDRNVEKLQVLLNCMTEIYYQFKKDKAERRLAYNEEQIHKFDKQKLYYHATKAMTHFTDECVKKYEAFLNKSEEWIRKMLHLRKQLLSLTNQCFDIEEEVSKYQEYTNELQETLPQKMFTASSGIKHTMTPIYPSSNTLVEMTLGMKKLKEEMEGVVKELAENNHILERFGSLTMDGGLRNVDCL
Summary of the method: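 TBK1 enzyme and substrate incubated with compounds (10-point 1:4 dilution, top 30 uM final, 1% DMSO) for 90 min at 25° C, then stopped. Substrate/product peaks read by microfluidic mobility-shift (Caliper LabChip); 10 uM staurosporine as full-inhibition control.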

IKKε = molecular target: T2, IKKε (Homo sapiens, UniProt Q14164); assay: IKKe Biochemical Assay; conditions: read-out: IKKε IC50
T2 sequence (Q14164 1-716): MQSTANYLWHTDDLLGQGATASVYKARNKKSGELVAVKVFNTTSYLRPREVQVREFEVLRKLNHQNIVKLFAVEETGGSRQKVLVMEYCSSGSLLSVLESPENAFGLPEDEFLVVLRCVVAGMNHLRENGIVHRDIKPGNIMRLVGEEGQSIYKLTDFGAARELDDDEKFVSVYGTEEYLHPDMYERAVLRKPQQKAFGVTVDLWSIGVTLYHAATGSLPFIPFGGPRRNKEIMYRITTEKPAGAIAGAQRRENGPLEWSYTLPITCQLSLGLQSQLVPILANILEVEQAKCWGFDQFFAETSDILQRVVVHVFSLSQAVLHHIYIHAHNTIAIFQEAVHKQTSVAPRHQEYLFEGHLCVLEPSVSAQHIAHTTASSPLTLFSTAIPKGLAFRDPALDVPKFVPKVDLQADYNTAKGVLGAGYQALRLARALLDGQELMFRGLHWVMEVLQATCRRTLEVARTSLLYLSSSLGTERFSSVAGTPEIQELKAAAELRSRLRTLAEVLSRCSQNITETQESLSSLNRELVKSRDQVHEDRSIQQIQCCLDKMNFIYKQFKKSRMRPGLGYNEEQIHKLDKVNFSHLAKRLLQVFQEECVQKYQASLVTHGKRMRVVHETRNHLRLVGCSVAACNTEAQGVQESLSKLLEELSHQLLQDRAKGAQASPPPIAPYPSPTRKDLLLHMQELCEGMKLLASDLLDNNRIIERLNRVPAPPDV
Summary of the method: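 Recombinant IKKε and substrate were incubated with compound (10-point 1:4 series, top 30 uM final, 1% DMSO) for 90 min at 25° C, then stopped. Substrate-to-product conversion was read by LabChip microfluidic mobility shift; 10 uM staurosporine served as full-inhibition wells.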

[1] = tested on: phosphorylation of the IRF-3 protein in MDA-MB-468 cells; assay: pIRF3 immunocytochemistry cell based assay; conditions: Homo sapiens; MDA-MB-468 cells, Poly(I:C) stimulation; read-out: pIRF3 IC50
Summary of the method: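 MDA-MB-468 cells got compounds (10-point, 3-fold from 10 uM) for 1 h at 37 °C, then 10 ug/ml Poly(I:C) for 2 h. Fixed, permeabilized cells were immunostained for pIRF3 with AlexaFluor488 and counterstained with PI. % phosphorylation was read by laser scanning cytometry, and IC50 curves were fitted.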

SMILES | IC50 (TBK1) | IC50 (IKKε) | IC50 [1]
COc1cc(C(=O)N(C)C)cnc1-c1cc2ncc(C)c(-c3ccc(NC4CCOCC4)c(C#N)n3)c2o1 [Compound 322, 6-(7-(6-cyano-5-(tetrahydro-2H-pyran-4-ylamino)pyridin-2-yl)-6-methylfuro[3,2-b]pyridin-2-yl)-5-methoxy-N,N-dimethylnicotinamide] | 100 to 1000 nM | 1000 to 5000 nM | 1000 to 5000 nM
COc1cc(C(=O)N[C@@H]2CCC[C@@H](O)[C@H]2O)ccc1-c1cc2nccc(-c3ccc(OC4CCOCC4)c(C#N)c3)c2o1 [Compound 54, 4-{7-[3-Cyano-4-(tetrahydro-pyran-4-yloxy)-phenyl]-furo[3,2-b]pyridin-2-yl}-N-((1R,2S,3R)-2,3-dihydroxy-cyclohexyl)-3-methoxy-benzamide] | < 100 nM | < 100 nM | 100 to 1000 nM
COc1cc(C(=O)N(C)C)ccc1-c1cc2ncc(F)c(-c3ccc(NC4CCOCC4)c(C#N)c3)c2o1 [Compound 299, 4-(7-[3-cyano-4-[(oxan-4-yl)amino]phenyl]-6-fluorofuro[3,2-b]pyridin-2-yl)-3-methoxy-N,N-dimethylbenzamide] | < 100 nM | < 100 nM | 100 to 1000 nM
